pIC50: −log10 of the molar value.
Assays:
[1] = biological target: T1, AR-VP16 (Homo sapiens, UniProt P10275); assay: AR-VP16 DNA Binding Assay, antagonist mode (HepG2 cells, 0.1 nM R1881); type: cell-based
T1 sequence (P10275 560-920 limits assumed): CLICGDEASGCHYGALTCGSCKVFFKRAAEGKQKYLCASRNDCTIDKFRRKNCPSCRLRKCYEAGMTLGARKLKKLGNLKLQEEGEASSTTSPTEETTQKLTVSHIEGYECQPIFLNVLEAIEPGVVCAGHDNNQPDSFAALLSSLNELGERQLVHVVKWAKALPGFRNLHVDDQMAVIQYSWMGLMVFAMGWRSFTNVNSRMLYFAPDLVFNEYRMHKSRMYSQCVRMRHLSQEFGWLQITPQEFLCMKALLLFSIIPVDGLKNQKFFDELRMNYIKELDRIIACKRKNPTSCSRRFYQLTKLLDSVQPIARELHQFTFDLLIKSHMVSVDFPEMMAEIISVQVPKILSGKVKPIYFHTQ
Summary of the method: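 Transfected HepG2 cells expressing AR-VP16 received serially diluted compound in charcoal-stripped-serum RPMI the day after transfection, with 0.1 nM R1881 (final) added only for antagonist testing. After 48 h, cells were lysed for measurement.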

[2] = biological target: T1, AR-VP16; assay: AR-VP16 DNA Binding Assay, agonist mode (HepG2 cells); type: cell-based; details: Emax >20x DMSO control = agonist

Row | Structure (SMILES) | pIC50 [1] | ARVP16 DNA Binding Assay (Agonist mode): Agonist? [2]
1 | N#Cc1ncc(N2C(=O)C3(CCC3)N(c3ccc(C(=O)NCc4ccncc4)c(F)c3)C2=S)cc1C(F)(F)F [Compound 259, 4-(7-(6-Cyano-5-(trifluoromethyl)pyridin-3-yl)-8-oxo-6-thioxo-5,7-diazaspiro[3.4]octan-5-yl)-2-fluoro-N-(pyridin-4-ylmethyl)benzamide] | > 6.00 | No (Agonist defined as a compound whose Emax in the ARVP16 DNA Binding Assay (Agonist mode) is >20x DMSO control)
2 | N#Cc1ncc(N2C(=O)C3(CCC3)N(c3ccc(Oc4cnccn4)cc3)C2=S)cc1C(F)(F)F [Compound 207, 5-(8-Oxo-5-(4-(pyrazin-2-yloxy)phenyl)-6-thioxo-5,7-diazaspiro[3.4]octan-7-yl)-3-(trifluoromethyl)picolinonitrile] | > 6.00 | No (Agonist defined as a compound whose Emax in the ARVP16 DNA Binding Assay (Agonist mode) is >20x DMSO control)
3 | Cc1ccc(N2C(=S)N(c3cnc(C#N)c(C(F)(F)F)c3)C(=O)C23CCC3)cc1 [Compound 22, 5-(8-Oxo-6-thioxo-5-(p-tolyl)-5,7-diazaspiro[3.4]octan-7-yl)-3-(trifluoromethyl)picolinonitrile] | > 6.00 | No (Agonist defined as a compound whose Emax in the ARVP16 DNA Binding Assay (Agonist mode) is >20x DMSO control)
4 | N#Cc1ncc(N2C(=O)C3(CCC3)N(c3ccc(C(=O)Nc4cccnc4)c(F)c3)C2=S)cc1C(F)(F)F [Compound 262, 4-(7-(6-Cyano-5-(trifluoromethyl)pyridin-3-yl)-8-oxo-6-thioxo-5,7-diazaspiro[3.4]octan-5-yl)-2-fluoro-N-(pyridin-3-yl)benzamide] | > 6.00 | No (Agonist defined as a compound whose Emax in the ARVP16 DNA Binding Assay (Agonist mode) is >20x DMSO control)
5 | N#Cc1ncc(N2C(=O)C3(CCC3)N(c3ccc(OCCc4cccnc4)c(F)c3)C2=S)cc1C(F)(F)F [Compound 144, 5-(5-(3-Fluoro-4-(2-(pyridin-3-yl)ethoxy)phenyl)-8-oxo-6-thioxo-5,7-diazaspiro[3.4]octan-7-yl)-3-(trifluoromethyl)picolinonitrile] | > 6.00 | Yes (Agonist defined as a compound whose Emax in the ARVP16 DNA Binding Assay (Agonist mode) is >20x DMSO control)
6 | Cc1ccc(CCN2C(=S)N(c3cnc(C#N)c(C(F)(F)F)c3)C(=O)C23CCC3)cc1 [Compound 85, 5-(5-(4-Methylphenethyl)-8-oxo-6-thioxo-5,7-diazaspiro[3.4]octan-7-yl)-3-(trifluoromethyl)picolinonitrile] | > 6.00 | Yes (Agonist defined as a compound whose Emax in the ARVP16 DNA Binding Assay (Agonist mode) is >20x DMSO control)
7 | CNC(=O)c1ccc(N2C(=S)N(c3cnc(C#N)c(C)c3)C(=O)C23CCC3)cc1F [Compound 5, 4-(7-(6-Cyano-5-methylpyridin-3-yl)-8-oxo-6-thioxo-5,7-diazaspiro[3.4]octan-5-yl)-2-fluoro-N-methylbenzamide] | > 6.00 | No (Agonist defined as a compound whose Emax in the ARVP16 DNA Binding Assay (Agonist mode) is >20x DMSO control)
8 | N#Cc1ncc(N2C(=O)C3(CCC3)N(c3ccc(Oc4ccccc4)cc3)C2=S)cc1C(F)(F)F [Compound 25, 5-(8-Oxo-5-(4-phenoxyphenyl)-6-thioxo-5,7-diazaspiro[3.4]octan-7-yl)-3-(trifluoromethyl)picolinonitrile] | > 6.00 | No (Agonist defined as a compound whose Emax in the ARVP16 DNA Binding Assay (Agonist mode) is >20x DMSO control)
9 | Cc1ccc(N2C(=S)N(c3cnc(C#N)c(C(F)(F)F)c3)C(=O)C23CCC3)cc1F [Compound 49, 5-(5-(3-Fluoro-4-methylphenyl)-8-oxo-6-thioxo-5,7-diazaspiro[3.4]octan-7-yl)-3-(trifluoromethyl)picolinonitrile] | > 6.00 | No (Agonist defined as a compound whose Emax in the ARVP16 DNA Binding Assay (Agonist mode) is >20x DMSO control)
10 | N#Cc1ncc(N2C(=O)C3(CCC3)N(c3ccccc3-c3ccccc3)C2=S)cc1C(F)(F)F [Compound 15, 5-(5-([1,1′-Biphenyl]-2-yl)-8-oxo-6-thioxo-5,7-diazaspiro[3.4]octan-7-yl)-3-(trifluoromethyl)picolinonitrile] | < 6.00 | No (Agonist defined as a compound whose Emax in the ARVP16 DNA Binding Assay (Agonist mode) is >20x DMSO control)
11 | N#Cc1ncc(N2C(=O)C3(CCC3)N(c3ccc(Oc4ccncc4)cc3)C2=S)cc1C(F)(F)F [Compound 40, 5-(8-Oxo-5-(4-(pyridin-4-yloxy)phenyl)-6-thioxo-5,7-diazaspiro[3.4]octan-7-yl)-3-(trifluoromethyl)picolinonitrile] | > 6.00 | No (Agonist defined as a compound whose Emax in the ARVP16 DNA Binding Assay (Agonist mode) is >20x DMSO control)
12 | N#Cc1ncc(N2C(=O)C3(CCC3)N(c3ccc(C(=O)Nc4ccccn4)c(F)c3)C2=S)cc1C(F)(F)F [Compound 261, 4-(7-(6-Cyano-5-(trifluoromethyl)pyridin-3-yl)-8-oxo-6-thioxo-5,7-diazaspiro[3.4]octan-5-yl)-2-fluoro-N-(pyridin-2-yl)benzamide] | > 6.00 | No (Agonist defined as a compound whose Emax in the ARVP16 DNA Binding Assay (Agonist mode) is >20x DMSO control)
13 | N#Cc1ncc(N2C(=O)C3(CCC3)N(c3ccc(OCCN4CCCCC4)cc3F)C2=S)cc1C(F)(F)F [Compound 187, 5-(5-(2-Fluoro-4-(2-(piperidin-1-yl)ethoxy)phenyl)-8-oxo-6-thioxo-5,7-diazaspiro[3.4]octan-7-yl)-3-(trifluoromethyl)picolinonitrile] | > 6.00 | No (Agonist defined as a compound whose Emax in the ARVP16 DNA Binding Assay (Agonist mode) is >20x DMSO control)
14 | N#Cc1ncc(N2C(=O)C3(CCC3)N(c3ccc(C(=O)NCCc4ccccn4)c(F)c3)C2=S)cc1C(F)(F)F [Compound 236, 4-(7-(6-Cyano-5-(trifluoromethyl)pyridin-3-yl)-8-oxo-6-thioxo-5,7-diazaspiro[3.4]octan-5-yl)-2-fluoro-N-(2-(pyridin-2-yl)ethyl)benzamide] | > 6.00 | No (Agonist defined as a compound whose Emax in the ARVP16 DNA Binding Assay (Agonist mode) is >20x DMSO control)
15 | Cc1cc(N2C(=O)C3(CCC3)N(c3ccc(OC4CCN(C)CC4)c(F)c3)C2=S)cnc1C#N [Compound 192, 5-(5-(3-Fluoro-4-((1-methylpiperidin-4-yl)oxy)phenyl)-8-oxo-6-thioxo-5,7-diazaspiro[3.4]octan-7-yl)-3-methylpicolinonitrile] | < 6.00 | No (Agonist defined as a compound whose Emax in the ARVP16 DNA Binding Assay (Agonist mode) is >20x DMSO control)
16 | N#Cc1ncc(N2C(=O)C3(CCC3)N(c3ccc(OC4CCN(C(N)=O)CC4)cc3)C2=S)cc1C(F)(F)F [Compound 222, 4-(4-(7-(6-Cyano-5-(trifluoromethyl)pyridin-3-yl)-8-oxo-6-thioxo-5,7-diazaspiro[3.4]octan-5-yl)phenoxy)piperidine-1-carboxamide] | > 6.00 | Yes (Agonist defined as a compound whose Emax in the ARVP16 DNA Binding Assay (Agonist mode) is >20x DMSO control)
17 | N#Cc1ncc(N2C(=O)C3(CCC3)N(c3ccc(S(=O)(=O)CCc4ccncc4)cc3)C2=S)cc1C(F)(F)F [Compound 91, 5-(8-Oxo-5-(4-((2-(pyridin-4-yl)ethyl)sulfonyl)phenyl)-6-thioxo-5,7-diazaspiro[3.4]octan-7-yl)-3-(trifluoromethyl)picolinonitrile] | < 6.00 | No (Agonist defined as a compound whose Emax in the ARVP16 DNA Binding Assay (Agonist mode) is >20x DMSO control)
18 | N#Cc1ncc(N2C(=O)C3(CCC3)N(c3ccc(F)c(C(=O)NCCCN4CCCC4)c3)C2=S)cc1C(F)(F)F [Compound 252, 5-(7-(6-Cyano-5-(trifluoromethyl)pyridin-3-yl)-8-oxo-6-thioxo-5,7-diazaspiro[3.4]octan-5-yl)-2-fluoro-N-(3-(pyrrolidin-1-yl)propyl)benzamide] | > 6.00 | No (Agonist defined as a compound whose Emax in the ARVP16 DNA Binding Assay (Agonist mode) is >20x DMSO control)
19 | CN1CCN(CCNC(=O)c2ccc(N3C(=S)N(c4cnc(C#N)c(C(F)(F)F)c4)C(=O)C34CCC4)cc2F)CC1 [Compound 243, 4-(7-(6-Cyano-5-(trifluoromethyl)pyridin-3-yl)-8-oxo-6-thioxo-5,7-diazaspiro[3.4]octan-5-yl)-2-fluoro-N-(2-(4-methylpiperazin-1-yl)ethyl)benzamide] | < 6.00 | No (Agonist defined as a compound whose Emax in the ARVP16 DNA Binding Assay (Agonist mode) is >20x DMSO control)
20 | CN1CCN(CCCOc2cc(N3C(=S)N(c4cnc(C#N)c(C(F)(F)F)c4)C(=O)C34CCC4)ccc2F)CC1 [Compound 167, 5-(5-(4-Fluoro-3-(3-(4-methylpiperazin-1-yl)propoxy)phenyl)-8-oxo-6-thioxo-5,7-diazaspiro[3.4]octan-7-yl)-3-(trifluoromethyl)picolinonitrile] | < 6.00 | No (Agonist defined as a compound whose Emax in the ARVP16 DNA Binding Assay (Agonist mode) is >20x DMSO control)

Source: patent US9108944B2, “Androgen receptor modulators and uses thereof” (ARAGON PHARMACEUTICALS, INC., priority 2010, dated 2015)
